What all share (type): cell-based, Human
Test [1] has as its system CCM2-depleted endothelial cells. As to the kind of experiment: xCELLigence proliferation assay (RTCA impedance). The following applies: 400nM added to siCCM2 ECs; RTCA xCelligence impedance over 24h; Figure 1B. The method, then: (§1) Pooled Human Umbilical Vein Endothelial Cells (HUVEC) were obtained from Pelobiotech. Upon reception, HUVEC at P0 were expanded over 2 passages in 100µg/ml collagen 1 (from rat tail, BD) coated flasks in complete EGM-2 medium (Lonza) supplemented with 100 U/ml penicillin and 100 µg/ml streptomycin at 37°C in a 5% CO2 - 3% O2 humidified chamber. HUVEC at passage 3 were transfected twice at 24 h-intervals with 30 nM siRNA and Lipofectamine RNAi max (Life Technologies, ref. 13778-150) according to the manufacturer's instructions in OptiMEM at 37°C in a regular 5% CO2 in a humidified chamber. For double transfections, 30 nM of each siRNA duplexes (Dharmacon smartpool ON-TARGET plus Thermo Scientific) was used: Non-targeting siRNA #1 (ref. D-001810-01), CCM2 siRNA (ref. L-014728-01) and TRPV4 siRNA (ref. L-004195-00).
Proliferation assay was performed using the xCELLigence Real-Time Cell Analysis (RTCA) DP instrument in combination with E-plate 16 (ACEA Biosciences) coated with 100µL of 100µg/mL collagen 1 (from rat tail) for 30 min at 37°C and washed 2 times with PBS 1X. 50 µL of complete EBM-2 medium was added and baseline without cells was made with RTCA software. 2.5x103 transfected HUVEC (4 wells per condition) were seeded 24h after the second round of transfection in 50µL of complete EBM-2-medium. […] Impedance measurements were recorded every 5 min during 24h. […]

Test [2] shares this test system. As to the kind of experiment: Gelatin degradation assay (ECM degradation). The following applies: 800 nM; siCCM2 HUVEC; Figure 3B. The method, then: Pooled Human Umbilical Vein Endothelial Cells (HUVEC) were obtained from Pelobiotech. Upon reception, HUVEC at P0 were expanded over 2 passages in 100µg/ml collagen 1 (from rat tail, BD) coated flasks in complete EGM-2 medium (Lonza) supplemented with 100 U/ml penicillin and 100 µg/ml streptomycin at 37°C in a 5% CO2 - 3% O2 humidified chamber. HUVEC at passage 3 were transfected twice at 24 h-intervals with 30 nM siRNA and Lipofectamine RNAi max (Life Technologies, ref. 13778-150) according to the manufacturer's instructions in OptiMEM at 37°C in a regular 5% CO2 in a humidified chamber. […]
Coverslips in 24 well-plates were coated with gelatin-Alexa488 dye as previously described (70). siCT and siCCM2 HUVEC were seeded 24h after the second siRNA transfection at 3x10^4/well in OptiMEM medium in presence or absence of the calcium channels inhibitors overnight at 37°C in a 5% CO2 incubator. […] For a quantitative analysis of the degradative skill of siRNA transfected cells, 10 images per condition were randomly acquired and were converted to binary images using B&W thresholding on Imaged. The total area of the black zones corresponding to the total area of degradation of the fluorescent gelatin was measured.

The test system is the same in test [3]. As to the kind of experiment: Ki67 immunofluorescence staining (proliferative marker). The following applies: 400nM added to siCCM2 ECs; Figure 1E. How it is done: as §1
Transfected HUVEC were seeded at 3x10^4 cells (sparsed, for Ki67 staining) or […] (confluent, for VE-cadherin staining) in 24-well plates on coverslips coated with 10 µg/ml fibronectin (from human plasma, Sigma Aldrich) and incubated overnight (Ki67 experiment) or for 48h (VE-cadherin experiment) in complete EBM-2 medium in presence or absence of the calcium channels inhibitors dissolved in DMSO. […] The percentage of Ki67 positive cells was counted manually out of more than 130 cells total.

We go through one molecule from patent EP4520331A1, “PHARMACEUTICAL COMPOSITION COMPRISING TRPV4 INHIBITOR FOR USE IN THE PREVENTION OR TREATMENT OF CEREBRAL CAVERNOUS MALFORMATIONS (CCM)” (Université Grenoble Alpes, priority 2023, dated 2025).

On to `O=C(NC1(c2ccccc2)CC1)c1c(CN2CCC(N3CCCCC3)CC2)c(-c2cccc(C(F)(F)F)c2)nc2cc(Br)ccc12` [GSK2193874, 3-([1,4'-Bipiperidin]-1'-ylmethyl)-7-bromo-N-(1-phenylcyclopropyl)-2-[3-(trifluoromethyl)phenyl]-4-quinolinecarboxamide], for which, in test [1], the proliferation rate result is given as “restoration”. Also, the “CCM2-depleted ECs capacity to degrade the ECM such as gelatin” value in test [2] is on record as “inhibits”. In test [3], the “proliferative marker Ki67” value is on record as “restoration”.
